# In a melting point compilation (Tetko et al.; mined from patent text by program, amines drawn as free bases though some values may be those of a salt):
row,melting point,Structure (SMILES)
1,57 to 58 °C,CCOC(=O)c1ccc(C)nc1
2,74 °C,Cc1ccc(CCCCOCCCCCCNCC(O)c2ccc3c(n2)COC(c2ccccc2)O3)cc1 (centres undefined)
3,205 to 206 °C,COc1cc(C=C2N=C(C)OC2=O)ccc1OC(C)=O
4,226 to 228 °C,COCCCC(=O)c1cc(C(=O)O)c2cc(Cc3ccc(F)cc3)cnc2c1O
5,81 to 83 °C,CCCOc1nc2sc(Cl)cc2c(=S)n1CCC
6,117 to 118 °C,Cc1cc(-c2cccc(C(F)(F)F)c2)c2nc(C(F)(F)F)cnc2c1
7,141 °C,CCN1C(=O)CCCc2c1ccc(Nc1ncc(Cl)c(N[C@@H]3CCC[C@H]3NS(C)(=O)=O)n1)c2OC (relative stereo)
8,75 to 77 °C,COc1cc(C)c(C(=O)c2c(Cl)cncc2C(F)(F)F)c(OC)c1OC
9,199 to 202 °C,O=C1CN2Cc3ccccc3-c3cccc1c32
10,165 to 167 °C,Oc1ccc(NC2Cc3ccccc3C2)cc1
11,92 to 94 °C,Clc1ccc(OCc2ccc3ccccc3n2)cc1
12,130 to 132 °C,COc1ccc(C2Nc3ccc(Cl)cc3C(C#CC3CC3)(C(F)(F)F)O2)cc1 (centres undefined)
13,133 to 143 °C,CCCCc1nc2cccc(C(=O)OC)c2c(=O)n1Cc1ccc(-c2ccccc2-c2nnn[nH]2)cc1
14,92 to 94 °C,COC(=O)CCCCNC(=O)C(CO)NS(=O)(=O)c1ccc(Cl)cc1 (racemic)
15,132 to 134 °C,COc1c(N2C[C@H]3CCOC[C@@]3(N)C2)c(F)cc2c(=O)c(C(=O)O)cn([C@@H]3C[C@@H]3F)c12
16,163 to 165 °C,Cc1ccc(-c2cccc(/C=C/C(=O)Nc3ccc(CN(C)CC#N)cc3)c2)cc1
17,222 to 225 °C,OC[C@H]1C[C@@H](n2cnc3cc(Cl)c(Cl)cc32)[C@H](O)[C@@H]1O
18,163 to 164 °C,O=C(/C=C/c1cccnc1)NCCc1cccc(O)c1
19,94 °C,O=[N+]([O-])c1cccc(OCc2ccccc2)c1Cl
20,203 to 208 °C,CCOC(=O)c1cn(-c2nc(NCc3ccc(OC)cc3)c(F)cc2F)c2c(F)c(F)c(F)c(F)c2c1=O
21,235 to 237 °C,CC1CC(=O)NN=C1c1ccc(NC(=O)C2(C)CC2)cc1 (centres undefined)
22,176 to 178 °C,COC(=O)C(=NO)c1nc2cccc(OC)c2oc1=O
23,139 to 143 °C,CC(C)(C)OC(=O)Nc1cc(N2CCOCC2)c(I)cc1N

row,melting point,Structure (SMILES)
1,173 °C,CC(C)(C)OC(=O)N1CCO[C@@H](c2ccc(C(=O)O)cc2)C1
2,142 to 143 °C,CC(C)(C)OC(=O)CSC(NCc1ccccc1)=C1C(=O)CCCC1=O
3,136 to 137 °C,CC(C)(C)OC(=O)N1CCC(c2cn(S(C)(=O)=O)c3ccccc23)CC1
4,190 to 191 °C,CC(C)[C@H](NC(=O)c1ccccc1)C(=O)NCC(=O)O
5,115 to 116 °C,Clc1ccc(CCC(Cn2ccnc2)OCC=Cc2ccccc2)cc1 (centres undefined)
6,120 to 122 °C,Cc1nc(N2CCN(C)CC2)nc(N)c1-c1cccc(Br)c1
7,285 to 287 °C,COc1cc(Nc2c(C#N)cnc3cc4cc(OCCn5nccn5)c(OC)cc4cc23)c(Cl)cc1Cl
8,104 to 106 °C,O=C1C=CC(OC2CCCCC2)N1S(=O)(=O)c1ccccc1 (centres undefined)
9,226 to 227 °C,O=C(O)c1cn(C2CC2)c2c(F)c(N3CCC4(C3)OCCCO4)c(F)cc2c1=O
10,109 °C,NS(=O)(=O)c1cccc(CCO)c1
11,65 to 67 °C,CC(C)(C)[Si](C)(C)Oc1c(I)cc(Cl)c2cccnc12
12,95 to 97 °C,O=[N+]([O-])c1ccc(CN2CCc3ccccc32)cc1
13,190 °C,CC(=O)N[C@H](C(=O)N1C[C@@H]2C(=O)CCC(c3ccccc3)(c3ccccc3)[C@@H]2C1)c1ccccc1
14,163 to 166 °C,CC(=O)c1cc(Cl)c(O)c2ncccc12
15,117 to 119 °C,COc1ccc2c(c1)CCC1=C2CCC2(CC(C)C)C(=O)CCC12 (centres undefined)
16,167 to 168 °C,Cc1[nH]c2ccc(CCN3CCN(C)CC3)cc2c1C(=O)OCc1ccccc1
17,90 to 92 °C,CCCCOCCOc1ccc(-c2cnc(N3CC(C)C(C)C3)c(/C=C(\C)C(=O)O)c2)cc1 (centres undefined)
18,210 to 213 °C,COCc1c[nH]c2c([N+](=O)[O-])ccc(C)c2c1=O
19,135 °C,NCc1ccc(N2CC(CN3CCC(CC(=O)O)CC3)OC2=O)cc1 (centres undefined)
20,100 °C,O=C(O)CC[C@@H](C(=O)OCc1ccccc1)n1c2ccccc2c2ccccc21
21,297 to 299 °C,COc1cc2c(cc1OC)-c1cc(Nc3c(C)cccc3C)nc(=O)n1CC2
22,150 to 153 °C,O=C(NCc1ccc(Cl)cc1)c1cn(CCc2ccccc2)c2oc(CCl)cc2c1=O
23,160 to 162 °C,O=C(CCN1CCC(C(O)(c2ccc(F)cc2)c2ccc(F)cc2)CC1)N(c1ccccc1)c1ccccc1

row,melting point,Structure (SMILES)
1,66 to 70 °C,CCOC(=O)Nc1ccc(Cl)c(N)n1
2,180 to 182 °C,Cc1cc2c(cc1Cl)N(C(=O)CN1CCN(c3ncccn3)CC1)c1ccccc1N(C)S2(=O)=O
3,163 °C,CCC(=O)Nc1ccc(NC(=O)CN2CCN(CCCCC(c3ccc(F)cc3)c3ccc(F)cc3)C(C(N)=O)C2)c(C(C)=O)c1 (centres undefined)
4,195 to 197 °C,COc1cccc(Cl)c1C1SC(=O)NC1=O (centres undefined)
5,186 to 218 °C,ON=C(c1ccc(Cl)cc1)C1(n2cncn2)CC1
6,172 to 174 °C,CC(C)(C)c1ccc(-c2ccc(C(=O)CCC(=O)O)cc2)cc1
7,148 to 149 °C,CC1(CNc2ccccc2)SC2C(NC(=O)Cc3ccccc3)C(=O)N2C1C(=O)OCC(Cl)(Cl)Cl (centres undefined)
8,106 °C,COC(=O)c1cc(N(C)C(C)=O)cc(N(C)C(C)=O)c1
9,191 to 193 °C,COc1c(C)c(C)c(OC)c(C(O)(c2ccc(N3CCOCC3)cc2)C(C)C)c1C (centres undefined)
10,159 to 160 °C,O=c1c(-c2ccccc2)c[nH]n1-c1ncccn1
11,108 °C,O=C(O)CCCCOc1cccc2occc12
12,144 to 146 °C,Cc1nn(C)c(C(=O)N(C)C)c1Nc1ccccc1[N+](=O)[O-]
13,52 to 53.5 °C,CCCCOCn1c(-c2ccc(Cl)cc2)c(C#N)c(Br)c1C(F)(F)F
14,150 to 152 °C,Cc1ccc2[nH]c(C(=O)OCc3ccccc3)cc2c1
15,128 to 130 °C,COc1ccc(CCc2ccc(NC(=O)C(=O)c3cc(Cl)ccc3O)cc2)cc1OC
16,217 to 218 °C,Cc1ccc(Cl)cc1NC(=S)Nc1ccn(C)n1
17,146 to 149 °C,O=C(C=Cc1cc(O)c(O)cc1O)OCCc1ccccc1
18,174 to 175 °C,Cc1c(-c2ccccc2)n(Cc2ccccc2)c2ccc(-c3ccc(OCC(=O)O)cc3)cc12
19,246 °C,C/C=C/c1ccc2c(NCc3ccc(NC(=O)c4ccc(F)cc4)cc3)nc(N(C)C)nc2c1
20,146 to 148 °C,CCOC(=O)c1ccc(C(=O)Sc2cccn3c(=O)c(C(=O)OCC)cnc23)cc1
21,144 to 146 °C,CC1(CCOc2ccc(/C=C/C(=O)O)c(Oc3ncc(C(F)(F)F)cc3Cl)c2)OCCO1
22,106 to 108 °C,BrCc1ccc2ccccc2c1Br
23,202 to 204 °C,COC(=O)c1cc(CCC2CNc3nc(NC(=O)C(C)(C)C)nc(O)c3C2)cn1[Si](C(C)C)(C(C)C)C(C)C (centres undefined)

row,melting point,Structure (SMILES)
1,59 °C,CCCCCCCCOc1ccc(CC(=O)[C@H]2CC[C@H](CCCCC)CC2)c(F)c1F
2,196 °C,CC(C)c1ccc(S(=O)(=O)n2c(Cc3ccc(C(=O)O)c(F)c3)cc3cc(Cl)ccc32)cc1
3,119 to 122 °C,O=C(NC(Cc1c[nH]c2ccccc12)C(=O)CCc1cc(C(F)(F)F)cc(C(F)(F)F)c1)c1ccccc1 (centres undefined)
4,228 °C,CCOC(=O)c1c(Cl)c2cc(Cl)cnc2[nH]c1=O
5,258 to 259 °C,CCOc1ccc2cc(-c3nc(C(C)(C)C)[nH]c3-c3ccncc3)ccc2c1
6,105 to 110 °C,OCc1cc(CO)c(O)c(-c2ccccc2)c1
7,204 to 205 °C,COc1ccc(C(=O)Nc2ccc(C)c(NC(=O)c3cccc(N(C)C)c3)c2)cc1OC
8,149 to 150 °C,CC(=O)OCC(=O)NCc1ccc(-c2csc(N)n2)s1
9,80 to 81 °C,CCCCCc1nc(-c2ccccc2)c(CCC(=O)O)o1
10,176 to 178 °C,COc1ccc(C=CC2=NNC(C)Cc3cc4c(cc32)OCO4)c(OC)c1 (centres undefined)
11,> 260 °C,Cc1ccc(NC(=O)NCc2cccc3c2CN(C2CCC(=O)NC2=O)C3=O)cc1C (centres undefined)
12,265 to 267 °C,N#CNC(=O)C=NNc1ccc(F)cc1
13,169 to 171 °C,Cc1cc(OCC(O)CNC(C)C)c2cc(C(=O)N(C)C)[nH]c2c1 (centres undefined)
14,64 to 67 °C,O=C(NCCN1CCCCC1)N1CCN(c2ccccc2)CC1
15,30 to 31 °C,C=C(C)C(=O)OCCCCOc1ccc(C(=O)Cl)cc1
16,166 to 167 °C,COc1ccccc1-c1cn(N=Cc2ccccc2)c(N)n1
17,71 to 73 °C,CCCCn1c(=O)c2c(ncn2S(=O)(=O)CCCCl)n(CCCC)c1=O
18,164 °C,CN1[C@@H](c2cccc(Cl)c2)c2ccccc2S1(=O)=O
19,174 to 177 °C,CS(=O)(=O)c1ccc(-c2cnn(-c3cccc(Cl)c3)c(=O)c2Cc2ccccc2)cc1
20,155 to 156 °C,Fc1ccc(-c2ncn(C3CCNCC3)c2-c2ccnc(Oc3cccc(F)c3)n2)cc1
21,232 to 233 °C,Cc1nc(-c2ccsc2)c2nc(-c3ccccc3)cc-2[nH]1
22,105 to 108 °C,CC(C)(C)c1nn(-c2c(Cl)cc(C(F)(F)F)cc2Cl)c(Br)c1[N+](=O)[O-]

row,Structure (SMILES),melting point
1,COc1cc2c(C3=CCN(C[C@H](O)COc4cccc5[nH]ccc45)CC3)c[nH]c2cc1Cl,115 to 120 °C
2,CCS(=O)CC(O)(C(=O)Nc1ccc(C#N)c(C(F)(F)F)c1)C(F)(F)F (centres undefined),141 to 143 °C
3,CCCCP(=O)(C(=O)c1c(OC)cccc1OC)C(=O)c1c(OC)cccc1OC,151 to 152 °C
4,CNC(=O)Oc1c(C)ccc2c1CC(C)C2(C)C (centres undefined),110 °C
5,O=C(CCl)c1ccc(Oc2ccc(C(=O)CCl)cc2)cc1,129 to 130 °C
6,NCCc1c[nH]c2ccc3c(=O)n(CCc4ccccc4)ccc3c12,162 to 166 °C
7,CC(C)(COC(=O)OOC(=O)OCC(C)(C)c1ccccc1)c1ccccc1,59 to 60 °C
8,Cc1nc2c(c(=O)[nH]1)-c1ccc(Cl)cc1C(c1ccccc1F)=NC2,262 to 264 °C
